According to patent US20240374631A1, “A COMPOSITION FOR IMPROVING GUT MICROBIOTA, BEHAVIOURAL PATTERN, ALPHA-SYNUCLEIN LEVELS, SLEEP PATTERN AND/OR SERUM MELATONIN” (GN Corporation Co Ltd, priority 2021, published 2024):

System: gut microbiota
Assay: Gut microbiome analysis (16S rRNA sequencing of fecal samples) in STAM model of NASH
Type: in vivo, C57BL/6J mice
Source text: The study is reported in accordance with Animal Research: Reporting of In Vivo Experiments (ARRIVE) guidelines. C57BL/6J mice were obtained from Japan SLC, Inc. (Japan). All animals used in this study were cared for under the following guidelines: Act on Welfare and Management of Animals (Ministry of the Environment, Japan, Act No. 105 of Oct. 1, 1973), standards relating to the care and management of laboratory animals and relief of pain (Notice No. 88 of the Ministry of the Environment, Japan, Apr. 28, 2006) and the guidelines for proper conduct of animal experiments (Science Council of Japan, Jun. 1, 2006). Protocol approvals were obtained from SMC Laboratories, Japan's IACUC (Study reference no: […] Mice were maintained in a specific pathogen-free (SPF) facility under controlled conditions of temperature (23±3° C.), humidity (50±20%), lighting (12-hour artificial light and dark cycles; light from 8:00 to 20:00) and air exchange. The STAM model of NASH was induced as previously described [D10]. Mice were given a single subcutaneous injection of 200 μg streptozotocin (STZ, Sigma-Aldrich, USA) solution 2 days after birth and fed with a high-fat diet (HFD, 57 kcal % fat, Cat #HFD32, CLEA Japan, Inc., Japan) from 4-9 weeks of age. All mice develop liver steatosis and diabetes and at […] mice had established steatohepatitis, histologically. Studygroups: There were five study groups, described below. Eight mice were included in each study group. Eight NASH mice were orally administered vehicle supplemented with AFO-202 Beta Glucan at a dose of 1 mg/kg in a volume of 5 mL/kg once daily from 6 to 9 weeks of age. Eight NASH mice were orally administered vehicle supplemented with Telmisartan at a dose of 10 mg/kg once daily from 6 to 9 weeks of age. Frequency: Fecal samples were collected at the 6 weeks of age (before administration) and 9 weeks of age (before sacrifice). Procedure: At 6 weeks of age, fecal samples were collected from each mouse by clean catch method. […] A sterile petri dish was placed on the bench. Gently massage the abdomen, position the bottom of mouse over a fresh petri dish, and collect 1-2 fecal pellets. At sacrifice, fecal samples were aseptically collected from cecum. The tubes with feces were placed on ice immediately. These tubes were snap frozen in liquid nitrogen and stored at -80° C. for shipping. In this analysis, the 16S rRNA sequence data acquired by the next-generation sequencer from the fecal […] was used to perform community analysis using the QIIME2 program for microbial community analysis. The raw read data in FASTQ format output from the next-generation sequencer was trimmed to remove adapter sequences and low QV regions that may be included in the data. Cutadapt was used to remove adapter sequences from DNA sequencing reads. Trimmomatic was used as read trimming tool for Illumina NGS data. The adapter sequence was trimmed using the adapter trimming program “cutadapt” if the Trimming of the region at the end of the read sequence overlapped the corresponding sequence by at least one base (mismatch tolerance: 20%). When reads containing N were present in at least one of Read1 and Read2, both Read1 and Read2 were removed. Trimming of low QV regions was performed on the read data after processing using the QV trimming program “Trimmomatic” under the following conditions. The window of 20 bases is slid from the 5' side, and the area where the average QV is less than 20 is trimmed. After trimming, only the reads with more than 50 bases remaining in both Read1 and Read2 were taken as output. The microbial community analysis based on 16S rRNA sequence was performed on the sequence data trimmed in the previous section using the microbial community analysis program “QIIME2”. The annotation program “sklearn” included in QIIME2 is used to annotate the ASV (OTU) sequences. […]

CCCc1nc2c(C)cc(-c3nc4ccccc4n3C)cc2n1Cc1ccc(-c2ccccc2C(=O)O)cc1 [Telmisartan]
Abundance: Family Methanobacteriaceae, Genus Methanobrevibacter, Species — (pre (baseline), table row r429): 0
Abundance: Family Lachnospiraceae, Genus Other, Species Other (pre (baseline), table row r431): 12
Abundance: Family Lachnospiraceae, Genus Dorea, Species — (pre (baseline), table row r432): 0
Abundance: Family Lachnospiraceae, Genus Dorea, Species — (pre (baseline), table row r433): 7
Abundance: Family Lachnospiraceae, Genus —, Species — (pre (baseline), table row r434): 11
Abundance: Family Erysipelotrichaceae, Genus —, Species — (pre (baseline), table row r435): 0
Abundance: Family Other, Genus Other, Species Other (pre (baseline), table row r437): 0
Abundance: Family Ruminococcaceae, Genus Ruminococcus, Species — (pre (baseline), table row r438): 0
Abundance: Family Lachnospiraceae, Genus Other, Species Other (pre (baseline), table row r439): 0
Abundance: Family Erysipelotrichaceae, Genus Clostridum, Species cocleatum (pre (baseline), table row r440): 0
Abundance: Family Clostridiaceae, Genus —, Species — (pre (baseline), table row r441): 10
Abundance: Family S24-7, Genus —, Species — (pre (baseline), table row r442): 0
Abundance: Family Ruminococcaceae, Genus Oscillospira, Species — (pre (baseline), table row r443): 0
Abundance: Family Erysipelotrichaceae, Genus —, Species — (pre (baseline), table row r446): 0
Abundance: Family Streptococcaceae, Genus —, Species — (pre (baseline), table row r447): 0
Abundance: Family Erysipelotrichaceae, Genus —, Species — (pre (baseline), table row r448): 0
Abundance: Family Turicibacteraceae, Genus Turicibacter, Species — (pre (baseline), table row r449): 0
Abundance: Family S24-7, Genus —, Species — (pre (baseline), table row r450): 0
Abundance: Family Ruminococcaceae, Genus Oscillospira, Species — (pre (baseline), table row r451): 0
Abundance: Family Lachnospiraceae, Genus —, Species — (pre (baseline), table row r452): 0
Abundance: Family Erysipelotrichaceae, Genus —, Species — (pre (baseline), table row r454): 0
Abundance: Family Ruminococcaceae, Genus Ruminococcus, Species — (pre (baseline), table row r455): 0
Abundance: Family Moraxellaceae, Genus Psychrobacter, Species Other (pre (baseline), table row r456): 0
Abundance: Family Paenibacillaceae, Genus Other, Species Other (pre (baseline), table row r457): 0
Abundance: Family Lachnospiraceae, Genus Coprococcus, Species — (pre (baseline), table row r458): 0
Abundance: Family Bacillaceae, Genus Bacillus, Species — (pre (baseline), table row r459): 0
Abundance: Family Enterococcaceae, Genus Vagococcus, Species — (pre (baseline), table row r460): 0
Abundance: Family Lachnospiraceae, Genus —, Species — (pre (baseline), table row r462): 0
Abundance: Family Ruminococcaceae, Genus Oscillospira, Species — (pre (baseline), table row r466): 0
Abundance: Family Erysipelotrichaceae, Genus —, Species — (pre (baseline), table row r468): 4
Abundance: Family Other, Genus Other, Species Other (pre (baseline), table row r469): 0
Abundance: Family Clostridiaceae, Genus Clostridium, Species Other (pre (baseline), table row r470): 0
Abundance: Family Ruminococcaceae, Genus —, Species — (pre (baseline), table row r473): 3
Abundance: Family Deferribacteraceae, Genus Mucispirillum, Species schaedleri (pre (baseline), table row r474): 0
Abundance: Family Turicibacteraceae, Genus Turicibacter, Species — (pre (baseline), table row r475): 0
Abundance: Family [Mogibacteriaceae], Genus —, Species — (pre (baseline), table row r478): 0
Abundance: Family Lachnospiraceae, Genus Dorea, Species longicateria (pre (baseline), table row r480): 2
Abundance: Family Ruminococcaceae, Genus —, Species — (pre (baseline), table row r481): 0
Abundance: Family Lachnospiraceae, Genus —, Species — (pre (baseline), table row r482): 0
Abundance Erysipelotrichaceae/Allobaculum/— (pre, line r8): 6375
Abundance Turicibacteraceae/Turicibacter/— (pre, line r9): 9408
Abundance Desulfovibrionaceae/—/— (pre, line r10): 3882
Abundance Clostridiaceae/Other/Other (pre, line r11): 7143
Abundance Lactobacillaceae/Lactobacillus/— (pre, line r12): 416
Abundance Streptococcaceae/Lactococeus/— (pre, line r13): 2239
Abundance Bacteroidaceae/Bacteroides/— (pre, line r14): 1596
Abundance [Paraprevotellaceae]/[Prevotella]/— (pre, line r15): 1674
Abundance —/—/— (pre, line r16): 1552
Abundance Deferribacteraceae/Mucispirillum/schaedleri (pre, line r17): 4795
Abundance Bacteroidaceae/Bacteroides/acidifaciens (pre, line r18): 983
Abundance —/—/— (pre, line r19): 853
Abundance Verrucomicrobiaceae/Akkermansia/muciniphila (pre, line r20): 2305
Abundance Rikenellaceae/—/— (pre, line r21): 696
Abundance Enterobacteriaceae/Other/Other (pre, line r22): 17
Abundance Lactobacillaceae/Lactobacillus/— (pre, line r23): 883
Abundance S24-7/—/— (pre, line r24): 623
Abundance Lachnospiraceae/—/— (pre, line r25): 752
Abundance Peptostreptocpccaceae/—/— (pre, line r26): 1121
Abundance Lachnospiraceae/[Ruminococcus]/gnavus (pre, line r27): 2041
Abundance Lachnospiraceae/Coprococeus/— (pre, line r28): 444
Abundance Bifidobacteriaceae/Bifidobacterium/pseudolongum (pre, line r29): 1317
Abundance Enterobacteriaceae/Proteus/— (pre, line r30): 0
Abundance Lactobacillaceae/Lactobacillus/Other (pre, line r31): 64
Abundance S24-7/—/— (pre, line r32): 740
Abundance Porphyromonadaceae/Parabacteroides/distasonis (pre, line r33): 320
Abundance Clostridiaceae/—/— (pre, line r34): 1242
Abundance —/—/— (pre, line r35): 420
Abundance Desulfovibrionaceae/Desulfovibrio/— (pre, line r36): 65
Abundance S24-7/—/— (pre, line r37): 708
Abundance Coriobacteriaceae/Adlercreutzia/— (pre, line r38): 625
Abundance S24-7/—/— (pre, line r39): 480
Abundance Erysipelotrichaceae/Clostridium/cocleatum (pre, line r40): 319
Abundance Ruminococcaceae/Ruminococcus/— (pre, line r41): 1164
Abundance Lachnospiraceae/Other/Other (pre, line r43): 481
Abundance Lachnospiraceae/[Ruminococcus]/gnavus (pre, line r44): 311
Abundance Turicibacteraceae/Turicibacter/— (pre, line r45): 586
Abundance Lachnospiraceae/—/— (pre, line r46): 611
Abundance Bacteroidaceae/Bacteroides/— (pre, line r47): 460
Abundance Ruminococcaceae/Oscillospira/— (pre, line r48): 293
Abundance Lachnospiraceae/Roseburia/— (pre, line r50): 488
Abundance Lachnospiraceae/—/— (pre, line r51): 338
Abundance S24-7/—/— (pre, line r52): 305
Abundance Lachnospiraceae/[Ruminococcus]/gnavus (pre, line r53): 123
Abundance Lachnospiraceae/Coprococcus/— (pre, line r56): 126
Abundance S24-7/—/— (pre, line r57): 322
Abundance S24-7/—/— (pre, line r58): 237
Abundance Lachnospiraceae/Other/Other (pre, line r60): 562
Abundance Lachnospiraceae/[Ruminococcus]/gnavus (pre, line r61): 375
Abundance Erysipelotrichaceae/Allobaculum/— (pre, line r62): 286
Abundance Desulfovibrionaceae/Desulfovibrio/C21_c20 (pre, line r63): 604
Abundance S24-7/—/— (pre, line r64): 383
Abundance Streptococcaceae/Lactococcus/garvieae (pre, line r66): 11
Abundance Enterobacteriaceae/Proteus/— (pre, line r68): 0
Abundance Lachnospiraceae/—/— (pre, line r69): 44
Abundance S24-7/—/— (pre, line r70): 399
Abundance Lachnospiraceae/[Ruminococcus]/gnavus (pre, line r71): 278
Abundance Clostridiaceae/Clostridium/Other (pre, line r73): 707
Abundance Lachnospiraceae/—/— (pre, line r74): 0
Abundance Clostridiaceae/Other/Other (pre, line r75): 215
Abundance Clostridiaceae/Other/Other (pre, line r77): 255
Abundance S24-7/—/— (pre, line r78): 196
Abundance Lachnospiraceae/[Ruminococcus]/gnavus (pre, line r79): 601
Abundance Bacteroidaceae/Bacteroides/— (pre, line r80): 170
